Results: patent publication US10993933B2, “Oral dosage forms of bendamustine” (ASTELLAS DEUTSCHLAND GMBH, priority 2010, dated 2021)
Marks after values point to notes of the source that are not given here.

Columns and labels:
[1] = Stability of an aqueous solution of bendamustine as a function of pH; details: pH values higher than about 5
[2] = Phase 1 crossover study, urine pharmacokinetics (Example 8); assay type: in vivo, human; details: for % Aeinf / % Aelast / Aeinf / Aelast / CLR: bendamustine in urine, n=11
Excerpt: Urine pharmacokinetic parameters of bendamustine, M3 and M4 are presented in Table 27, Table 28 and Table 29, respectively. The percentage of the dose excreted in urine unchanged was low (2.6% and 2.1% for oral and intravenous bendamustine, respectively).

[3] = Phase 1 crossover study, safety and tolerability (Example 8); assay type: in vivo, human
[4] = Phase 1 crossover study, plasma pharmacokinetics after oral and i.v. bendamustine (Example 8)
Description: An open label, randomized two-way crossover study to assess the absolute bioavailability of oral bendamustine in patients with cancer was conducted to assess the absolute bioavailability of bendamustine administered as an oral formulation (example 2). Besides assessing the pharmacokinetics of bendamustine in plasma following oral and i.v. administration, a further objective was to evaluate the safety and tolerability of bendamustine following i.v. and especially oral administration of the formulation of example 2.
14 patients who were suffering from multiple myeloma, B-cell type chronic lymphocytic leukemia or advanced indolent non-Hodgkin's lymphoma were enrolled and were treated with bendamustine. […] After signing the informed consent form and following the screening period (days −21 to −2), eligible patients were assigned a patient number which was specific for each study site. Patients were randomized to receive one of the following on day 1 followed by the other on day 8: • a single oral dose of 110.2 mg (2×55.1 mg) bendamustine HCl • a single intravenous dose of 100 mg bendamustine HCl
Bendamustine was provided a) orally as capsules, a LFHC formulation (liquid-filled, hard-shell capsule) and b) intravenously as a solution after reconstituting a powder for the preparation of a solution for injection. The LFHC formulation (per capsule) was prepared from 55.1 mg bendamustine hydrochloride, 1.2 mg methylparaben, 0.12 mg […], 0.12 mg butylated hydroxytoluene, 10.9 mg ethanol and 532.56 mg CREMOPHOR RH40. The vial with powder for concentrate for solution was the marketed product in Germany (RIBOMUSTINE) which contains per vial 100 mg of bendamustine hydrochloride and mannitol as an excipient. This product was reconstituted with water for injection to a final concentration of 2.5 mg/ml of bendamustine HCl and was further diluted with 0.9% NaCl until about 500 ml before administration to the patient, in accordance with the instructions of the package insert.
Patients were admitted to the study site for 2 periods; days −1 to 2 (period 1) and days 7 to 9 (period 2). A total of 12 patients was to be randomized to receive treatment. Six patients were to receive treatment with a single oral dose of 110.2 mg (2×55.1 mg) bendamustine HCl (day 1) followed by a single intravenous dose of 100 mg bendamustine HCl (day 8) while 6 other patients were to receive treatment in the alternate order. Patients underwent a washout period of at least 7 days between treatments.
After oral and intravenous administration of bendamustine the concentration of bendamustine, as well as that of the active metabolites of bendamustine (M3 and M4), were determined in plasma and urine samples on day 1 and day 8. Patients returned to the study site for an end-of-study visit 7 to 14 days after completion of the second treatment period, or after early discharge/withdrawal. Subsequently the pharmacokinetic parameters of bendamustine and its metabolites were calculated.

[5] = Bendamustine HCl 100 mg intravenously, mean
[6] = Bendamustine HCl 100 mg intravenously, median
[7] = Bendamustine HCl 100 mg intravenously, min-max
[8] = Bendamustine HCl 110.2 mg orally, mean
[9] = Bendamustine HCl 110.2 mg orally, median
[10] = Bendamustine HCl 110.2 mg orally, min-max

Cn1c(CCCC(=O)O)nc2cc(N(CCCl)CCCl)ccc21 [bendamustine, 4-[5-[bis(2-chloroethyl)amino]-1-methylbenzimidazo-2-yl]butanoic acid]
stability of an aqueous solution [1]: significant hydrolytic decomposition
% Aeinf [2, 5]: 2.07%
% Aelast [2, 5]: 2.07%
Aeinf [2, 5]: 1.874 mg
Aelast [2, 5]: 1.88 mg
% Aeinf [2, 6]: 1.22%
% Aelast [2, 6]: 1.23%
Aeinf [2, 6]: 1.11 mg
Aelast [2, 6]: 1.12 mg
% Aeinf [2, 7]: 0.27-8.8%
% Aelast [2, 7]: 0.27-8.8%
Aeinf [2, 7]: 0.24 to 8.0 mg
Aelast [2, 7]: 0.24 to 8.0 mg
CLR [2, 7]: 0.06 to 1.4 L/h
% Aeinf [2, 8]: 2.64%
% Aelast [2, 8]: 2.66%
Aeinf [2, 8]: 2.64 mg
Aelast [2, 8]: 2.66 mg
CLR [2, 8]: 0.788 L/h
% Aeinf [2, 9]: 2.23%
% Aelast [2, 9]: 2.23%
Aeinf [2, 9]: 2.23 mg
Aelast [2, 9]: 2.23 mg
% Aeinf [2, 10]: 0.40-5.8%
% Aelast [2, 10]: 0.40-5.9%
Aeinf [2, 10]: 0.40 to 5.8 mg
Aelast [2, 10]: 0.40 to 5.9 mg
CLR [2, 10]: 0.18 to 2.0 L/h
percentage of the dose excreted in urine unchanged ([2]; patients, intravenous): 2.1%
patients with at least 1 adverse event considered related to study drug ([3]; intravenous dose): no patients
patients with treatment-emergent adverse events ([3]; intravenous treatment, 100 mg): 25%
safety and tolerability ([3]; intravenous, single dose 100 mg): safe and well tolerated
deaths during the study ([3]; oral and intravenous): No deaths occurred
patients with at least 1 adverse event considered related to study drug ([3]; oral dose): 29%
patients with treatment-emergent adverse events ([3]; oral treatment, 110.2 mg): 43%
safety and tolerability ([3]; oral, single dose 110.2 mg): safe and well tolerated
F ([4]; Bendamustine HCl 110.2 mg orally vs 100 mg intravenously, arithmetic mean, n=11): 69.0† %
CL/F ([4]; bendamustine in plasma, Bendamustine HCl 110.2 mg orally, mean, n=12): 31.7 L/h
Mean t1/2 ([4]; patients, intravenous administration): approximately 30 minutes
absolute bioavailability (oral versus intravenous ratio of AUCinf), geometric mean ([4]; patients, oral 110.2 mg LFHC (example 2) vs i.v. 100 mg, 90% CI: 55%, 78%): 66%
tmax ([4]; patients, oral administration): approximately 0.95 hours
tmax, individual values ([4]; patients, oral administration): 15 min and 108 min
Mean t1/2 ([4]; patients, oral intake): approximately 30 minutes
Cmax after oral dosing as % of Cmax after intravenous dosing ([4]; patients, 90% CI: 32%, 54%): 42%
